Test results from PubChem BioAssay AID2060349 (Molecular Pharmacology Branch, DTP, NCI, 2025).
Where “and” joins values, the source holds several entries; their conditions need not be identical. Equal values may be shown once.

System: 762968-020-R-J2-PDC spheroids viability
Test: Anticancer human tumor 762968-020-R-J2-PDC patient-derived colon carcinoma cell line growth inhibition [TAK]
Details: spheroids with HUVEC and MSC; for viability, T/C: stronger effect = lower value
From the text: Combinatorial screen of targeted agents with TAK-243 and ipatasertib in multi-cell type tumor spheroids
A high-throughput screen of multi-cell type tumor spheroids was designed to identify active combinations of targeted small molecules and TAK-243 or ipatasertib. Complex spheroids include a stromal component modeled by human endothelial cells (HUVEC) and fibroblasts modeled by human mesenchymal stem cells (MSCs). The concentration ranges selected for each drug and investigational agent were based upon clinically achievable concentrations if the clinical Cmax of the agent was known.
Compounds. The drugs and investigational agents: TAK-243 (785004), ipatasertib (767898), everolimus (733504), selumetinib (741078), bortezomib (756655), trametinib (758246), ixazomib (758254), vemurafenib (761431), dabrafenib (764134), sapanisertib (764658), alpelisib (765974), and copanlisib (816437), were obtained from the National Cancer Institute (NCI) Developmental Therapeutics Program Chemical Repository. The FDA-approved anticancer drug set is available from the NCI Developmental Therapeutics Program. […] The stock solutions were prepared in dimethyl sulfoxide (DMSO, Sigma-Aldrich, St. Louis, MO, cat. D2650) at 800-fold the tested concentration and stored at -70 degrees C prior to their use. All drugs and investigational agents were tested over a range starting from a high concentration at or near the clinical Cmax and decreasing in half-log increments. If the clinical Cmax for an agent had not been determined, the highest concentration tested was 10 microM.
NCI60 Cell Culture. NCI60 cell lines were obtained from the NCI Developmental Therapeutics Program Tumor Repository. For each lot of cells, the Repository performed Applied Biosystems AmpFLSTR Identifiler testing with PCR amplification to confirm consistency with the published Identifier STR profile for each cell line. Cells were kept in continuous culture for no more than 20 passages. The optimal seeding densities for each of the cell lines at each time point assessed were determined prior to performing the concentration response studies. Briefly, the NCI60 human tumor lines were grown as monolayers in RPMI 1640 medium supplemented with 10% FBS and 2 mmol/L L-glutamine.
An additional 2 lines were from the NCI60 cell line panel including melanomas, MALME-3M and SK-MEL-2. Pooled donor human umbilical vein endothelial cells (HUVEC, Lonza, cat. CC-2519) and human mesenchymal stem cells (hMSC, Lonza, cat. PT-2501) were purchased from Lonza (Walkersville, MD).
PDMR cell lines were grown in complete medium (DC medium): Dulbecco's modified Eagle's medium (DMEM)/F12 supplemented with 5% fetal bovine serum (FBS), 2 mM L-glutamine, 100 U/mL penicillin and 100 µg/ml streptomycin, 0.4 µg/ml hydrocortisone, 10 ng/ml epidermal growth factor (EGF) recombinant human protein, 24 µg/mL adenine, and 0.1 mg/mL primocin. During culture from frozen stock vials, PDMR cells were cultured in the same medium containing 10 µM Y-27632 (see Table 3). The PDCs were cultured in complete DMEM/F12 media without 10 microM Y-27632 dihydrochloride for at least two passages prior to the screen. The pooled donor HUVEC and hMSC were cultured in endothelial cell growth medium 2 (PromoCell, Heidelberg, Germany, cat. C-22011) and mesenchymal stem cell growth medium 2 (PromoCell, cat. C-28009), respectively. For all experiments, HUVEC and hMSC were used at passages </=5.
For the pre-screen, cell seeding densities were determined from a titration spanning the range from 5,000 to 313 cells per well. The mct-spheroids including 60% malignant cells, 25% HUVEC and 15% MSC dispensed as a mixture into U-bottom Ultra-Low Attachment 384-well plates (Corning, NY)
High-throughput Drug Combination Screening.
Prior to their inoculation into 384-well plates, malignant cells, HUVEC, and hMSC were removed from T flasks using TrypLE express (Thermo Fisher Scientific, cat. 12605036) and harvested by centrifugation for 5 min at 233 x g. […]

[1] = curve of first compound, second compound 0.3 µM
[2] = curve of first compound, second compound 0.949 µM
[3] = curve of first compound, second compound 3 µM
[4] = curve of first compound, second compound 9.49 µM
[5] = curve of first compound, second compound 30 µM
[6] = second compound 0.3 µM, first compound 0.000316 µM
[7] = second compound 0.3 µM, first compound 0.001 µM
[8] = second compound 0.3 µM, first compound 0.00316 µM
[9] = second compound 0.3 µM, first compound 0.01 µM
[10] = second compound 0.949 µM, first compound 0.000316 µM
[11] = second compound 0.949 µM, first compound 0.001 µM
[12] = second compound 0.949 µM, first compound 0.00316 µM
[13] = second compound 0.949 µM, first compound 0.01 µM
[14] = second compound 3 µM, first compound 0.000316 µM
[15] = second compound 3 µM, first compound 0.001 µM
[16] = second compound 3 µM, first compound 0.00316 µM
[17] = second compound 3 µM, first compound 0.01 µM
[18] = second compound 9.49 µM, first compound 0.000316 µM
[19] = second compound 9.49 µM, first compound 0.001 µM
[20] = second compound 9.49 µM, first compound 0.00316 µM
[21] = second compound 9.49 µM, first compound 0.01 µM
[22] = second compound 30 µM, first compound 0.000316 µM
[23] = second compound 30 µM, first compound 0.001 µM
[24] = second compound 30 µM, first compound 0.00316 µM
[25] = second compound 30 µM, first compound 0.01 µM
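Note: spheroids exposed to drug for 7 days before readout.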
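Throughout, for viability, T/C: 100% = DMSO vehicle control wells.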

For `CCCS(=O)(=O)Nc1ccc(F)c(C(=O)c2c[nH]c3ncc(-c4ccc(Cl)cc4)cc23)c1F`, the viability, T/C (compound 0.316 µM) was 88.9% and 96.2%, the viability, T/C (compound 1 µM) was 87.8% and 96.9% and the viability, T/C (compound 3.16 µM) was 90.3% and 92.5%. The viability, T/C (compound 10 µM) was 73.6% and 62.2%, the viability, T/C (compound 31.6 µM) was 99.2% and 102% and the viability, T/C (compound 100 µM) was 90.3% and 105%. The IC50 (curve of compound) was > 100000 nM.

For `CC(C)(C)c1nc(-c2cccc(NS(=O)(=O)c3c(F)cccc3F)c2F)c(-c2ccnc(N)n2)s1`, the viability, T/C (compound 0.0316 µM) was 85.6% and 94.4%, the viability, T/C (compound 0.1 µM) was 82.9% and 88.2% and the viability, T/C (compound 0.316 µM) was 92.5% and 85.2%. For the same molecule, the viability, T/C (compound 1 µM) was 86.4% and 81%, the viability, T/C (compound 3.16 µM) was 90.5% and 88.5% and the viability, T/C (compound 10 µM) was 99.3% and 86.4%. For the same molecule, the IC50 (curve of compound) was > 10000 nM.

With `COC1CC2CCC(C)C(O)(O2)C(=O)C(=O)N2CCCCC2C(=O)OC(C(C)CC2CCC(OCCO)C(OC)C2)CC(=O)C(C)C=C(C)C(O)C(OC)C(=O)C(C)CC(C)C=CC=CC=C1C` (centres undefined) + CC(C)NCC(C(=O)N1CCN(c2ncnc3c2C(C)CC3O)CC1)c1ccc(Cl)cc1 the IC50 [1] was > 100 nM, the IC50 [2] was > 100 nM and the IC50 [3] was > 100 nM. The IC50 [4] was > 100 nM, the IC50 [5] was > 100 nM and the viability, T/C [6] was 102%. For the same molecule, the viability, T/C [7] was 106%, the viability, T/C [8] was 103% and the viability, T/C [9] was 103%. It also gave a viability, T/C (second compound 0.3 µM, first compound 0.0316 µM) of 103%, a viability, T/C (second compound 0.3 µM, first compound 0.1 µM) of 102% and a viability, T/C [10] of 104%. The viability, T/C [11] was 104%, the viability, T/C [12] was 111% and the viability, T/C [13] was 105%. It also gave a viability, T/C (second compound 0.949 µM, first compound 0.0316 µM) of 99.5%, a viability, T/C (second compound 0.949 µM, first compound 0.1 µM) of 92.3% and a viability, T/C [14] of 107%. For the same molecule, the viability, T/C [15] was 109%, the viability, T/C [16] was 109% and the viability, T/C [17] was 105%. For the same molecule, the viability, T/C (second compound 3 µM, first compound 0.0316 µM) was 95.1%, the viability, T/C (second compound 3 µM, first compound 0.1 µM) was 97.5% and the viability, T/C [18] was 104%. It also gave a viability, T/C [19] of 105%, a viability, T/C [20] of 95.5% and a viability, T/C [21] of 101%. The viability, T/C (second compound 9.49 µM, first compound 0.0316 µM) was 93.9%, the viability, T/C (second compound 9.49 µM, first compound 0.1 µM) was 100% and the viability, T/C [22] was 92.2%. The viability, T/C [23] was 89%, the viability, T/C [24] was 92.3% and the viability, T/C [25] was 86.4%. It also gave a viability, T/C (second compound 30 µM, first compound 0.0316 µM) of 92.2% and a viability, T/C (second compound 30 µM, first compound 0.1 µM) of 84.5%.

With `CC(C)CC(NC(=O)C(Cc1ccccc1)NC(=O)c1cnccn1)B(O)O` (centres undefined) + CC(C)NCC(C(=O)N1CCN(c2ncnc3c2C(C)CC3O)CC1)c1ccc(Cl)cc1 the IC50 [1] was > 10 nM, the IC50 [2] was > 10 nM and the IC50 [3] was > 10 nM. The IC50 [4] was > 10 nM, the IC50 [5] was > 10 nM and the viability, T/C (second compound 0.3 µM, first compound 31.6 pM) was 101%. It also gave a viability, T/C (second compound 0.3 µM, first compound 0.0001 µM) of 101%, a viability, T/C [6] of 108% and a viability, T/C [7] of 102%. For the same molecule, the viability, T/C [8] was 98.3%, the viability, T/C [9] was 98.1% and the viability, T/C (second compound 0.949 µM, first compound 31.6 pM) was 103%. The viability, T/C (second compound 0.949 µM, first compound 0.0001 µM) was 102%, the viability, T/C [10] was 96.1% and the viability, T/C [11] was 100%. The viability, T/C [12] was 105%, the viability, T/C [13] was 85.5% and the viability, T/C (second compound 3 µM, first compound 31.6 pM) was 108%. The viability, T/C (second compound 3 µM, first compound 0.0001 µM) was 109%, the viability, T/C [14] was 106% and the viability, T/C [15] was 98.8%. The viability, T/C [16] was 106%, the viability, T/C [17] was 89% and the viability, T/C (second compound 9.49 µM, first compound 31.6 pM) was 98.5%. For the same molecule, the viability, T/C (second compound 9.49 µM, first compound 0.0001 µM) was 98.7%, the viability, T/C [18] was 99.3% and the viability, T/C [19] was 104%. The viability, T/C [20] was 98.9%, the viability, T/C [21] was 97.5% and the viability, T/C (second compound 30 µM, first compound 31.6 pM) was 87.7%. It also gave a viability, T/C (second compound 30 µM, first compound 0.0001 µM) of 91.9%, a viability, T/C [22] of 87.4% and a viability, T/C [23] of 85.4%. The viability, T/C [24] was 95.3% and the viability, T/C [25] was 87.2%.
